Values of other authors, collected in patent US20030162721A1, “PHARMACEUTICAL COMPOSITION CONTAINING PEPTICHEMIO” (priority 1997, published 2003).

Tested on: RPMI 8322 melanoma cells

For “L-prolyl-m-sarcolysyl-L-p-fluorophenylalanine [PSF]”, the “times more toxic than m-sarcolysine” value (relative to m-sarcolysine) is listed as 28 times and the “times more toxic than melphalan” value (relative to melphalan) is listed as 35 times.
